Experimental data as given in patent publication US20110218191A1, “USE OF MELOXICAM FOR THE LONG TERM-TREATMENT OF KIDNEY DISORDERS IN CATS” (BOEHRINGER INGELHEIM VETMEDICA GMBH, priority 2010, published 2011).

Tests used:
[1] = test system: aged cats with chronic kidney disease (CKD), IRIS stage 1-3; experiment: Retrospective case-controlled study: long-term meloxicam in aged cats with CKD (Group A) vs age and IRIS matched untreated controls (Group C); type: in vivo, cat
Procedure: The diagnosis of osteoarthritis or spondylosis deformans had been made based upon any two of the following: owner noted mobility changes, physical examination findings or radiographic changes. […] In addition, cats were only included if serum biochemistry, urine analysis and body weight had been regularly monitored. […]
In house urine specific gravity was determined with a Reichert Vet360 refractometer. Urine specific gravity was regularly compared to that measured by the same reference laboratory. […]

[2] = test system: aged cats without chronic kidney disease (no-CKD); experiment: Retrospective case-controlled study: long-term meloxicam in aged cats without CKD (Group B) vs age matched untreated controls (Group D); type: in vivo, cat
Text: The medical records of a feline-only practice were searched for cats with OA being treated with meloxicam during a 4 year period. A diagnosis of OA was based upon any two of the following: owner noted mobility changes and/or physical examination findings or radiographic changes. Cats included were older than 7 years and treated with meloxicam for a duration of more than 6 months. Biochemistry, urinalysis and body weight were regularly monitored. The progression of renal disease in the aged non-renal and renal group treated was compared to age matched and IRIS matched untreated controls from the same clinic. IRIS staging of CKD follows specific guidelines on the diagnosis and assessment of progression of renal disease in small animals as described below. Animals are being divided into […] categories according to the stage of their disease, see Table 1 (iris-kidney.com).
The database of a feline-only practice in suburban Melbourne was searched for cats which had been treated for chronic musculoskeletal diseases with meloxicam (Metacam® oral suspension, Boehringer Ingelheim) during a 4 year period. The diagnosis of osteoarthritis or spondylosis deformans had been made based upon any two of the following: owner noted mobility changes, physical examination findings or radiographic changes. The inclusion criteria included cats greater than 7 years old which had been treated continuously with meloxicam for a duration of more than 6 months and which had complete medical records available for review. In addition, cats were only included if serum biochemistry, urine analysis and body weight had been regularly monitored.
Young cats were excluded, as were cats with no pre-treatment renal parameter measurements. In addition cats were also excluded if the owner could not be contacted to check that the cats were still receiving daily treatment with meloxicam.
Age, breed, sex, concomitant diseases and medications as well as date treatment commenced, treatment duration and daily dose of meloxicam were recorded.
The majority of serum biochemistry determination was via external reference laboratory (Normal Range: Creatinine 0.08-0.20 mmol/L) and the remainder with an in-house IDEXX biochemistry and electrolyte machine (Normal Range: Creatinine 71-212 umol/L). In house urine specific gravity was determined with a Reichert Vet360 refractometer. Urine specific gravity was regularly compared to that measured by the same reference laboratory. Urine sediment examination and dipstick determination was carried out in-house with necessary urine cultures and urine protein. Urine creatinine determination was carried out at the same reference laboratory. […]
The median age of the renal and non-renal treated cats, median treatment duration and median maintenance dose was calculated. […]

Cc1cnc(NC(=O)C2=C(O)c3ccccc3S(=O)(=O)N2C)s1 [meloxicam]
differences from baseline in body weight ([1]; CKD-meloxicam group (A) vs age and IRIS matched untreated CKD group (C), time adjusted AUC, Wilcoxon rank-sum-test): no statistically significant differences | median maintenance dose after dose titration to the lowest effective dose ([1]; renal treated group (A), oral suspension): 0.02 mg/kg daily | progression of creatinine ([2]; meloxicam treated no-CKD group (B) vs untreated no-CKD group): no significant difference | differences from baseline in body weight ([2]; no-CKD meloxicam group (B) vs untreated no-CKD group (D), time adjusted AUC, Wilcoxon rank-sum-test): no statistically significant differences | progression of renal parameters ([2]; non-renal group treated with meloxicam (B) vs non-renal group not treated, median maintenance dose 0.02 mg/kg daily, median treatment duration 327 days): no differences | median maintenance dose after dose titration to the lowest effective dose ([2]; non-renal treated group (B), oral suspension): 0.02 mg/kg daily
